From patent US10209240B2, “Predicting human developmental toxicity of pharmaceuticals using human stem-like cells and metabolomic ratios” (STEMINA BIOMARKER DISCOVERY, INC., priority 2012, dated 2019)

Assays:
WA09 hES cells = assay: Phase 1 untargeted metabolomics of hES cell spent media, single concentration (ornithine, cystine, o/c ratio); format: cell-based, human; details: for Cystine abundance relative to the reference treatment / Ornithine abundance relative to the reference treatment: Phase 1, spent media, 72 hours, reference 0.1% DMSO; for Cystine abundance relative to the reference treatment: Cmax exposure (IC30 for hydroxyurea); for Ornithine abundance relative to the reference treatment: Cmax or IC30 exposure
Protocol: Undifferentiated hES Cell Line Maintenance (Phases 1 and 2).
96-well hES Cell Plating (Phases 1 and 2). […] Compound exposure began 24 hours after plating.
Sample Preparation (Phases 1 and 2).
Phase 1 Mass Spectrometry. LC-HRMS data was acquired for nine biological replications on three separate LC-HRMS systems with three replications evaluated on each system. Each system consisted of an Agilent 1290 Infinity LC system interfaced either with an Agilent G6520A QTOF high resolution mass spectrometer (QTOF HRMS), an Agilent G6530A QTOF HRMS, or an Agilent G6224A TOF HRMS system (Agilent Technologies, Santa Clara, Calif.). To facilitate separation of biological small molecules with a wide range of structures and to allow increased retention of hydrophilic species, Hydrophilic Interaction Liquid Chromatography (HILIC) was utilized. A Luna HILIC column (Phenomenex, Torrance, Calif.) with dimensions 3×100 mm and 3 μm particle size was used and maintained at 30° C. […] Electrospray ionization was employed using a dual ESI source. The scan range of the instrument was 70-1600 Da. Data acquisition was performed with MassHunter Acquisition software (version B 04.00, Agilent Technologies) using high-resolution exact mass conditions and each set of samples was run first under ESI positive polarity then under ESI negative polarity conditions.
Peak Detection (Phases 1 and 2). […] Mass features (peaks) were detected using the centwave algorithm.
Ornithine/Cystine Ratio Calculation.
Teratogenicity Threshold Selection (Phases 1 and 2).
Phase 1 Prediction of Developmental Toxicity Potential. A test compound was classified as a developmental toxicant if the mean of the change in the abundance in the treated sample compared to the reference treatment (DMSO) across the nine experimental replications for either metabolite or the o/c ratio exceeded its respective teratogenicity threshold at the concentration tested. The predictive accuracy (correct prediction), sensitivity (true positive rate), and specificity (true negative rate) were based on scoring the predicted result (teratogen or non-teratogen) against the known human teratogenicity of the compound.

hES cells [1] = assay: devTOX computational model predictions (Version 2.0, Version 2.1) from hES cell metabolomics; format: cell-based, human; details: single dose per treatment (Dose column)
Description: The selection process weighted the predictive capacity of a feature, overall intensity, and peak shape to identify very well behaved features/metabolites that could be measured by targeted LC-MS or even by other detection systems.
This simplified model is based on a ratio of the reference treatment (DMSO) normalized values of ADMA and cystine.

hES cells [2] = assay: ADMA/cystine ratio simplified predictive model in hES cell spent media; format: cell-based, human; details: single dose per treatment; ratios less than 0.9 indicate teratogenicity
Summary of the method: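 hES cell spent media were analysed for ADMA and cystine, each normalized to the DMSO reference, and their ratio formed. Each value is the median of independent blocks (6 reps each). A ratio cutoff of 0.9 classifies teratogens versus non-teratogens.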

[3] = training set; therapeutic peak plasma in vivo concentration, human; cited from earlier work
zebrafish = details: training and test set; weak/moderate and strong teratogens both labeled teratogen; cited from earlier work
rat whole embryo = details: training and test set; weak/moderate and strong teratogens both labeled teratogen; cited from earlier work

| SMILES | Cystine abundance relative to the reference treatment (WA09 hES cells) | Ornithine abundance relative to the reference treatment (WA09 hES cells) | Model Predictions Version 2.0 (hES cells [1]) | Model Predictions Version 2.1 (hES cells [1]) | Model Predictions ADMA/Cystine (hES cells [2]) | Cmax [3] | ZET prediction (zebrafish) | WEC prediction (rat whole embryo) | Classification by o/c ratio in Phase 1 (WA09 hES cells; teratogenicity threshold of a 12% decrease in the o/c ratio, single concentration) |
| --- | --- | --- | --- | --- | --- | --- | --- | --- | --- |
| CC1=C(/C=C/C(C)=C/C=C/C(C)=C\C(=O)O)C(C)(C)CCC1 [13-cis Retinoic Acid] | significant increase in abundance | increased | Ter | Ter | Ter | 2900 nM | TER^r | TER^s | – |
| CC1=C(/C=C/C(C)=C/C=C/C(C)=C/C(=O)O)C(C)(C)CCC1 [All-trans Retinoic Acid] | significant increase in abundance | increased | Ter | Ter | Ter | 1200 nM | TER^c,e,r | TER^q,s | – |
| NC(=O)N1c2ccccc2C=Cc2ccccc21 [Carbamazepine] | significant increase in abundance | – | Ter | Ter | Ter | – | TER^t | TER^j | – |
| O=C1NC(=O)C(c2ccccc2)(c2ccccc2)N1 [Diphenylhydantoin] | – | – | Non | Non | Non | – | NON^a | TER^f,j | misclassifying |
| O=C1CCC(N2C(=O)c3ccccc3C2=O)C(=O)N1 (centres unmarked) [Thalidomide] | significant increase in abundance | – | Ter | Ter | Ter | 12400 nM | TER^d | TER^f | – |
